Measurements reported in article PMC8853664, “Protein visualization and manipulation in Drosophila through the use of epitope tags recognized by nanobodies” (eLife, 2022).

Tested on: REPTOR
Assay: REPTOR localization in adult enterocytes after rapamycin treatment, detected with nanobody-GFP
Format: in vivo, Drosophila
Settings: rapamycin 50 µM in food, 15 hr; adult enterocytes co-expressing VHH05-REPTOR-127D01 and Nb127D01-GFP or NbVHH05-GFP; confocal imaging
From the text: To address whether NanoTagged POIs can be detected in vivo, we generated UAS-VHH05-REPTOR-127D01 flies. A previous study has shown that in S2 cells, the transcription factor REPTOR is enriched in the cytoplasm under normal conditions but translocates into the nucleus upon rapamycin treatment ([Tiebe et al., 2015]). To test whether the changes in REPTOR localization can be detected using the nanobodies, we co-expressed NanoTagged REPTOR along with Nb127D01-GFP or NbVHH05-GFP specifically in adult enterocytes (ECs). In the absence of a NanoTagged POI, Nb127D01-GFP and NbVHH05-GFP were detected in both the cytoplasm and nuclei (Figure 5G1). In contrast, when co-expressed with NanoTagged REPTOR, the nanobody-GFP signals were enriched in the cytoplasm of ECs under normal food conditions (Figure 5H and J). […] Similar changes were absent from ECs that express Nb127D01-GFP or NbVHH05-GFP alone (Figure 5G1).
For rapamycin treatment, rapamycin (LC Laboratories, R-5000) was dissolved in DMSO and mixed into the media when preparing food vials. The rapamycin dose was 50 µM. […]

With CO[C@H]1C[C@@H]2CC[C@@H](C)[C@@](O)(O2)C(=O)C(=O)N2CCCC[C@H]2C(=O)O[C@H]([C@H](C)C[C@@H]2CC[C@@H](O)[C@H](OC)C2)CC(=O)[C@H](C)/C=C(\C)[C@@H](O)[C@@H](OC)C(=O)[C@H](C)C[C@H](C)/C=C/C=C/C=C/1C [rapamycin, Rapamycin] the REPTOR subcellular localization was “leads to translocation of REPTOR into the nucleus”.
